Data as given in patent publication US10654896B2, “FoxP3-binding peptides and uses thereof” (FUNDACIÓN PARA LA INVESTIGACIÓN MÉDICA APLICADA, priority 2016, dated 2020).
Where no end group is shown, it is not given here.

Columns and labels:
human FOXP3 (FOXP3-6His) = target: T1, human FOXP3 (FOXP3-6His) (Homo sapiens, UniProt Q9BZS1); test: Peptide binding to FOXP3 by surface plasmon resonance (SPR)
T1 construct: 6xHis (C); made in house; host or cells: E. coli BL21 (DE3)
T1 sequence (Q9BZS1 1-431): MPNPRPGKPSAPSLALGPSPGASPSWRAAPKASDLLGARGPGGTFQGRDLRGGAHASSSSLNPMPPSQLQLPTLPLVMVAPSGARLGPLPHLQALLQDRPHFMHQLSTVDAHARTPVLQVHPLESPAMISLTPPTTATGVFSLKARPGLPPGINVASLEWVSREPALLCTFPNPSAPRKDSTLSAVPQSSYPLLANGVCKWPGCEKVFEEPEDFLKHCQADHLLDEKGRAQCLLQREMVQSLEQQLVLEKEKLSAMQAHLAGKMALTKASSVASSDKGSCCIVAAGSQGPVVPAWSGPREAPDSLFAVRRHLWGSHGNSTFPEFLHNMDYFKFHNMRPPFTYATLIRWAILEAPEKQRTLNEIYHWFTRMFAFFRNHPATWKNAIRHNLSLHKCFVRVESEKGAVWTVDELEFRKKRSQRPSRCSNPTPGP
How it was run: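 C-terminally 6His-tagged human FOXP3, expressed in E. coli BL21(DE3) and Ni-affinity purified, was amine-coupled to a GLM chip (ProteOn XPR36). Peptides at 1–20 μM injected in triplicate in PBS, 0.005% Tween 20, pH 7.4, at 30 μl/min, with interspot reference. Binding given as ratio to reference peptide p60.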

Hepa-129 cells = test: Tumor rejection experiment, Hepa-129 cells s.c.; type: in vivo, C3H/HeN mice; details: peptide 50 μg/mice/day, days 10 to 20, combined with anti-PD1 antibodies
Description: For tumor rejection experiments, Hepa-129 cells (10^6 cells/mouse), were injected subcutaneously (sc) in C3H/HeN mice (n=6). Ten days later, when the tumor reached 5 mm in diameter, mice were randomly divided into different experimental groups. A group of mice were treated i.p. with anti-PD1 antibodies (BE0146, BioXcell) (50 μg/mouse). Antibody administration was repeated one week after this first administration. A group of mice treated with anti-PD1 also received the cyclic peptide SEQ ID NO: 50 from days 10 to 20 (50 μg/mice/day). Tumor size, presented as the average of two perpendicular diameters (millimeters), was measured at regular intervals. Mice were sacrificed when the mean tumor diameter was greater than 20 mm. Mice were housed in appropriated animal care facilities during the experimental period and handled following the international guidelines required for experimentation with animals. The experiments were approved by institutional ethical committee.

CT26 tumor cells = test: Anti-tumor vaccination experiment (AH1 in IFA), CT26 challenge; type: in vivo, BALB/c
Description: For anti-tumor vaccination experiments, BALB/c animals immunized with 50 nanomol/mice of peptide AH1 emulsified in incomplete Freund adjuvant (IFA) (Casares et al., 2010, supra), were treated intraperitoneally with 10 nanomol/mice of the indicated Treg inhibitory peptide SEQ ID NO: 51 of the invention or with saline daily during 10 days. At day 10, mice were injected s.c. with 10^6 CT26 tumor cells. Tumor size was monitored twice a week with a calliper and it was expressed according to the formula V=(length×width2)/2. Mice were sacrificed when tumor size reached a volume greater than 4 cm^3.

[1] = Human liver microsomal stability; type: in vitro ADME; details: human liver microsomes
Description: (§1) The data collected were analyzed to calculate a half-life (t1/2, min) for tested peptides at a final concentration of 1 μM. Briefly, 5 μL of stock solution of tested peptide (10 mM) were diluted in 495 μL of 1:1 Methanol/Water (final concentration of 100 μM, 50% MeOH). Then, 50 μL of this intermediate solution were diluted in 450 μL of 100 mM potassium phosphate buffer to a concentration of 10 μM (working solution, 5% MeOH). The NADPH regenerating system contains β-Nicotinamide adenine dinucleotide phosphate (Sigma, Cat. # N0505), Isocitric acid (Sigma, Cat. #11252) and Isocitric dehydrogenase (Sigma, Cat. #12002) at a final concentration of 1 unit/mL at incubation.
(§2) Human liver microsomes were obtained from BD Gentest (Cat. #452117) and mouse liver microsomes from Xenotech (Cat. # M1000), to a final concentration of 0.7 mg protein/mL. A volume of 10 μL of peptide solution and 80 μL of microsome solution were added to a 96-well plate and incubated for 10 min at 37° C. The reaction was started by the addition of 10 μL of NADPH regenerating system and stopped by the addition of 300 μL of stop solution (ACN at 4° C., including 100 ng/mL Tolbutamide and 100 ng/mL of Labetalol as internal standard) at different incubation times (0, 5, 10, 20, 30 and 60 min). Concentrations of test compound were quantified by LC-MS/MS methodologies (Shimadzu LC 20-AD/API4000) using peak area ratio of analyte/internal standard and the percent loss of parent compound was calculated under each time point to determine the half-life.

[2] = Mouse liver microsomal stability; type: in vitro ADME; details: mouse liver microsomes
Description: as §1, §2

[3] = 20 min, read-out: % Remaining after 20 min
[4] = 60 min, read-out: % Remaining after 60 min

Sequence | increase in the binding to FoxP3 with respect to p60 (SEQ ID NO: 1) (human FOXP3 (FOXP3-6His)) | antitumor activity (Hepa-129 cells) | effect on growth of CT26 colon cancer tumor (CT26 tumor cells; 10 nanomol/mice i.p. daily during 10 days after AH1/IFA, day 30 after injection of CT26) | tumor volume (CT26 tumor cells; day 30 after injection of CT26 tumor cells) | remaining at 20 min, 1 μM [1, 3] | remaining at 1 h, 1 μM [1, 4] | half-life ([1]; peptide 1 μM, read-out: t1/2) | remaining at 20 min, 1 μM [2, 3] | remaining at 1 h, 1 μM [2, 4] | half-life ([2]; peptide 1 μM)
RAFQAFRKMWPFFAM [SEQ ID NO: 50] (cyclo(RAFQAFRKMWPFFAM); also: R1 and R2 form a linker birradical which is -C(=O)-) [head-to-tail cyclic peptide] | more than 2100% | remarkable antitumor activity |  |  |  |  |  |  |  | 
RDFQSFRKMWPFFAM [SEQ ID NO: 1, RDFQSFRKMWPFFAM, reference compound] |  |  | not efficient | about 2000 mm^3 | 0% | 0% | < 2.5 min | 0% | 0% | < 2.5 min
